From patent US12258370B2, “Betulastatin compounds” (Arizona Board of Regents on behalf of Arizona State …, priority 2017, dated 2025)
Values after ≈ are worked out from the molar mass of the structure shown.

How the values were obtained:
Type in all cases: cell-based
BXPC-3 (pancreas) = experiment: Sulforhodamine B human cancer cell growth inhibition, BXPC-3; conditions: BXPC-3 pancreas cell line, compounds in DMSO, 48 h; for IC50: Homo sapiens, read-out: Gl50 Growth Inhibition, XPC-3
Method: (§1) Cancer Cell Line Procedures. Inhibition of human cancer cell growth was assessed using the standard sulforhodamine B assay of the U.S. National Cancer Institute, as previously described.^15 To begin, cells in a 5% fetal bovine serum/RPMI1640 medium were inoculated in 96-well plates and incubated for 24 h. Next, serial dilutions of the compounds were added. After 48 h, the plates were fixed with trichloroacetic acid, stained with sulforhodamine B, and read with an automated microplate reader.

MCF-7 (breast) = experiment: Sulforhodamine B human cancer cell growth inhibition, MCF-7; conditions: compounds in DMSO, 48 h; for IC50: Homo sapiens, MCF7, MCF-7 breast cell line, read-out: Gl50 Growth Inhibition, MCF-7; for Gl50 Growth Inhibition, MCF-7: MCF-7 breast cell line
Method: as §1

SF-268 (CNS) = experiment: Sulforhodamine B human cancer cell growth inhibition, SF-268; conditions: SF-268 CNS cell line, compounds in DMSO, 48 h; for IC50: Homo sapiens, read-out: Gl50 Growth Inhibition, SF-268
Method: as §1

NCI-H460 (lung) = experiment: Sulforhodamine B human cancer cell growth inhibition, NCI-H460; conditions: NCI-H460 lung cell line, compounds in DMSO, 48 h; for IC50: Homo sapiens, read-out: Gl50 Growth Inhibition, NCI-H460
Method: as §1

KM20L2 (colon) = experiment: Sulforhodamine B human cancer cell growth inhibition, KM20L2; conditions: compounds in DMSO, 48 h; for IC50: Homo sapiens, KM-20L2, KM20L2 colon cell line, read-out: Gl50 Growth Inhibition, KM20L2; for Gl50 Growth Inhibition, KM20L2: KM20L2 colon cell line
Method: as §1

DU-145 (prostate) = experiment: Sulforhodamine B human cancer cell growth inhibition, DU-145; conditions: DU-145 prostate cell line, compounds in DMSO, 48 h; for IC50: Homo sapiens, read-out: Gl50 Growth Inhibition, DU-145
Method: as §1

Human Cancer Cell Lines = experiment: Human cancer cell line panel, overall comparison of growth inhibition; conditions: general statement on Table 1; comparator not stated
Method: as §1, with “reader. A growth inhibition of 50% (GI50 or the drug concentration causing a 50% reduction in the net protein increase) was calculated from optical density data with Immunosoft® software.” for “reader.”

| Molecule | IC50 (BXPC-3 (pancreas)) [µg/mL] | IC50 (MCF-7 (breast)) [µg/mL] | IC50 (SF-268 (CNS)) [µg/mL] | IC50 (NCI-H460 (lung)) [µg/mL] | IC50 (KM20L2 (colon)) [µg/mL] | IC50 (DU-145 (prostate)) [µg/mL] | fold increase in cancer cell growth inhibition (Human Cancer Cell Lines) | Gl50 Growth Inhibition, XPC-3 (BXPC-3 (pancreas)) [µg/mL] | Gl50 Growth Inhibition, MCF-7 (MCF-7 (breast)) [µg/mL] | Gl50 Growth Inhibition, SF-268 (SF-268 (CNS)) [µg/mL] | Gl50 Growth Inhibition, NCI-H460 (NCI-H460 (lung)) [µg/mL] | Gl50 Growth Inhibition, KM20L2 (KM20L2 (colon)) [µg/mL] | Gl50 Growth Inhibition, DU-145 (DU-145 (prostate)) [µg/mL] |
| --- | --- | --- | --- | --- | --- | --- | --- | --- | --- | --- | --- | --- | --- |
| C=C(CNC(=O)[C@H](C)[C@@H](OC)C1CCCN1C(=O)C[C@@H](OC)[C@H]([C@@H](C)CC)N(C)C(=O)[C@@H](NC(=O)C(C(C)C)N(C)C)C(C)C)[C@@H]1CC[C@]2(CO)CC[C@]3(C)C(CCC4[C@@]5(C)CC[C@H](O)C(C)(C)[C@@H]5CC[C@]43C)[C@@H]12 (stereo partly drawn) [Compound 16b, 30-N-(Dap-Dil-Val-Dov)-betulin] | 0.4 (≈ 0.385 µM) | 0.08 (≈ 0.077 µM) | 0.04 (≈ 0.0385 µM) | 0.5 (≈ 0.481 µM) | 0.09 (≈ 0.0867 µM) | 0.04 (≈ 0.0385 µM) | hundred-fold | – | – | – | – | – | – |
| C=C(C)[C@@H]1CC[C@]2(COC(C)=O)CC[C@]3(C)[C@H](CC[C@@H]4[C@@]5(C)CCC(N)C(C)(C)[C@@H]5CC[C@]43C)[C@@H]12 (single isomer, unassigned) [Compound 9b, 3-α/β-Amino-28-O-acetyl-betulin] | – | – | – | – | – | – | ~10 fold | 1.1 | 0.20 | 0.21 | 0.21 | 0.35 | 0.13 |
| 3β-Amino-N-(Dap-Dil-Val-Dov)-betulin [Compound 11b] | – | – | – | – | – | – | ~10 fold | 2.0 | 0.70 | 0.40 | 2.1 | 0.85 | 0.40 |
| CC[C@H](C)C([C@@H](CC(=O)N1CCCC1[C@H](OC)[C@@H](C)C(=O)NCCN1C(=O)[C@]23CCC(C)(C)C1C2[C@H]1CCC2[C@@]4(C)CC[C@H](O)C(C)(C)C4CC[C@@]2(C)[C@]1(C)CC3)OC)N(C)C(=O)[C@@H](NC(=O)[C@H](C(C)C)N(C)C)C(C)C (stereo partly drawn) [Compound 18b, 28-Amido-allobetulin-28-N-1′-ethyldiamine-N-2′-Dap-Dil-Val-Dov] | 0.31 (≈ 0.287 µM) | 0.21 (≈ 0.195 µM) | 0.09 (≈ 0.0834 µM) | 0.6 (≈ 0.556 µM) | 0.22 (≈ 0.204 µM) | 0.06 (≈ 0.0556 µM) | ~10 fold | – | – | – | – | – | – |
| C=C(C)[C@@H]1CC[C@]2(CNC(=O)[C@H](C)[C@@H](OC)C3CCCN3C(=O)C[C@@H](OC)[C@H]([C@@H](C)CC)N(C)C(=O)C(NC(=O)[C@H](C(C)C)N(C)C)C(C)C)CC[C@]3(C)C(CCC4[C@@]5(C)CC[C@H](O)C(C)(C)C5CC[C@]43C)C12 (stereo partly drawn) [Compound 7b, Betulin-28-amino-N-(Dap-Dil-Val-Dov)] | 0.6 (≈ 0.587 µM) | 0.4 (≈ 0.391 µM) | 0.3 (≈ 0.293 µM) | > 1 | 0.31 (≈ 0.303 µM) | 0.4 (≈ 0.391 µM) | ~10 fold | – | – | – | – | – | – |
